Like-named read-outs stand apart in the source and are kept apart here. Where a SMILES comes first, the peptide text is derived from it.
Experiments:
ob/ob mice = test: daily i.p. S38151 in ob/ob mice; type: in vivo, mouse
Experimental: In these studies, 13-week-old female C57BL/6J, ob/ob, and MCH1-KO mice were used. The mice were maintained on a 12-h light/dark cycle (lights on at 07:30 and off at 19:30) at 22 ± 3°C, and supplied with food pellets (6 mm diameter A03, UAR Laboratory chow, Epinay Villemuisson France) and tap water ad libitum. To induce obesity in C57BL/6J (creating diet-induced obese, or DIO, mice), mice were fed a high-fat diet (60 kcal% fat, 20 kcal% protein, 20 kcal% carbohydrate, ref D12492 from Research Diets, New Brunswick, NJ08901, USA) for 8 weeks starting at 4 weeks of age. In these experiments, DIO mice, ob/ob mice, and MCH^−/−1 mice were individually housed in a modular chamber that was placed on an activity platform to concurrently measure the food intake, water intake, and activity of the mice (ADDENFI, Les Cordeliers, Paris, France). For at least 2 weeks before experimentation, mice were habituated to a diet of 6 mm diameter food pellets of the following composition: 67.5% food flour, 26.5% sucrose, 5% gum tragacanth, 1.25% magnesium stearate (A03 UAR, Orge, France), and to i.p. injection. After this habituation period, food intake, drink intake, and body weight were measured for 3 consecutive days. The mice were randomized into three groups based on their food and water intake over the three preceding 24-h periods, and on their body weight. Next, the quantity of food eaten over each 24-h period during the 5 days of i.p. treatment with S38151 [10 and 30 mg/kg/day (7 and 20 μmol/kg/day)] or vehicle was determined and corrected for spillage.
Figure 8 The effects of repeated daily S38151 injection on food and water intake, body weight, and motility in ob/ob mice. Genetically modified ob/ob mice were administered S38151 (10 and 30 mg/kg, i.p.) or vehicle (normal saline i.p.) for 6 consecutive days. Results are expressed as mean ± SEM (n = 8 mice per group). White squares for controls, dark squares for 10 mg/kg, and dark triangles for 30 mg/kg.

Zucker fa/fa rats = test: daily i.c.v. administration, feeding, drinking, body weight and motility; type: in vivo, rat
Excerpt: Wistar and Zucker fa/fa rats were anesthetized with Forène (Abbott Laboratories, Queenborough, UK), and a stainless steel guide cannula (Plastic Products Co, Roanoke, Va, USA) was stereotaxically implanted into the right lateral ventricle at the following coordinates relative to the bregma: AP −0.8 mm, L = −1.2 mm, and V = −3.5 mm. After a 7-day recovery period, during which the animals were handled each day to minimize non-specific stress, they were lightly anesthetized with Forène. Human/mouse/rat MCH (1 μg in a volume of 2.5 μ L, Bachem, Voisins-le-Bretonneux, France) or an equivalent volume of artificial cerebrospinal fluid (CSF) was then injected through the intraventricular cannula. Immediately after injection, the animals quickly recovered and were returned to their home cages. Only those animals responding within 2 h with a robust increase in food intake, indicating correct cannula placement, were used in the experiments described below. Two days after MCH injection, the rats were randomly assigned to different groups and studied in one of the following protocols.
The TSE Drinking and Feeding Monitor system was used to analyze ingestive behavior in these experiments (TSE Technical & Scientific Equipment GmbH, Bad Homburg, Germany). The rats' motility was also determined in these experiments using the MoTil® system (TSE). Zucker fa/fa rats were placed individually into plastic cages to which were attached both a feeding and a drinking sensor. The animals were habituated to normal food (A03 UAR, Orge, France) and water for at least 2 weeks before experimentation. […] The injections were repeated daily for a total of 7 days. After 7 days, the injections were stopped and each measured parameter was followed during a 5-day washout period.
Figure 4 The effects of repeated daily central administration of S38151 on food intake, water intake, body weight, and motility in Zucker fa/fa rats. One hour prior the beginning of the dark phase, different doses of S38151 (5, 10, or 20 nmol/kg) or vehicle were injected (i.c.v.) once daily for 7 days, followed by a washout period of 5 days. […] Repeated measures Two-Way ANOVA (treatment × time) was performed with a repeated measure of the factor “time.” Significant treatment and interaction effects are shown on the graph. ^+P < 0.05; ^++P < 0.01; ^+++P < 0.001.

[1] = stability in mouse plasma; type: in vitro ADME; conditions: LC-MS/MS, representative of three experiments, read-out: % S38151 remaining
Experimental: First, S38151 was incubated for 16 h at 4°C and 37°C in mouse plasma or in TRIS buffer (pH 7.4). Next, plasma proteins were precipitated with two volumes of acetonitrile. After centrifugation and dilution with a water/acetonitrile mixture (50/50 v/v), the supernatant was injected onto a triple quadripole mass spectrometer (Ultima, Micromass WATERS Corporation, Milford, USA). The liquid chromatographic system consisted of an Agilent 1100 analytic pump (Agilent, Santa Clara, USA) equipped with an Alpha Mos CTC autosampler (Alpha Mos, Toulouse, France). Mass detection was performed using the m/z transition 743.5 > 163, in positive electrospray. A second stability study was performed at a lower concentration (1 μM) and for 4 h, with the following sampling times: 0, 15, 45, 90, and 240 min. At each sampling time, 50 μL of plasma were precipitated with two volumes of acetonitrile, and after centrifugation were directly injected onto the LC-MS/MS system. The same treatment was used for the buffer samples.
Figure 2 Studies regarding the stability of S38151. A solution of S38151 (40 μM) was incubated with either Tris buffer, pH 7.4 (hatched bars), or mouse plasma samples (dark bars) for 16 h at 4°C or 37°C. The samples were analyzed using liquid chromatography coupled to mass spectrometry. Experiments were repeated three times. The chart presented is representative of the experimental results. […]

CSCC[C@@H]1NC(=O)[C@@H](NC(=O)c2ccc(NC(=N)N)cc2)CSSC[C@@H](C(=O)N[C@@H](Cc2c[nH]c3ccccc23)C(=O)O)NC(=O)[C@@H]2CCCN2C(=O)[C@H](CCCNC(=N)N)NC(=O)[C@H](Cc2ccc(O)cc2)NC(=O)[C@H](C(C)C)NC(=O)[C@H](CCCNC(=N)N)NC(=O)[C@H](CC(C)C)NC1=O [S38151, p-guanidinobenzoyl-(Des-Gly10)-MCH (7–17)] (HELM PEPTIDE1{[N=C(N)Nc1ccc(C(=O)[*:2])cc1].C.M.L.R.V.Y.R.P.C.W}$PEPTIDE1,PEPTIDE1,2:R3-10:R3$$$V2.0; C-terminus assumed)
glycemia and insulinemia (ob/ob mice; S38151 30 mg/kg i.p., day 6, data not shown): significant reductions
body weight (ob/ob mice; S38151 10 and 30 mg/kg i.p. daily for 6 days, 30 mg/kg significant at days 1, 4, 5, 6): dose-dependent reduction
water intake (ob/ob mice; S38151 10 and 30 mg/kg i.p. daily for 6 days, same profile as food intake): did not reach statistical significance
food intake (ob/ob mice; S38151 10 and 30 mg/kg i.p. daily for 6 days, significant from day 3 only at 30 mg/kg, n = 8): dose-dependent inhibition
body weight gain during the washout period (Zucker fa/fa rats; 5-day washout after 10 nmol/kg S38151 i.c.v. for 7 days): remained significantly less than control values
motility during the washout period (Zucker fa/fa rats; 5-day washout after 20 nmol/kg S38151 i.c.v. for 7 days): remained significantly elevated
food intake (Zucker fa/fa rats; S38151 5, 10, 20 nmol/kg i.c.v. daily for 7 days, significant only at 20 nmol/kg, n = 8): dose-dependent inhibition
motility (Zucker fa/fa rats; S38151 10 and 20 nmol/kg i.c.v. daily for 7 days): significantly increased
body weight gain (Zucker fa/fa rats; S38151 10 and 20 nmol/kg i.c.v. daily for 7 days, compared with control rats): dose-dependent reduction
water intake (Zucker fa/fa rats; S38151 i.c.v. daily for 7 days, all injected doses except the 5 nmol dose): significantly inhibited
remaining at 16 h, 40 μM ([1]; 4°C): 59%
remaining at 16 h, 40 μM ([1]; 37°C): 1.5%

Reference: paper PMC3527734, “Peripheral injections of melanin-concentrating hormone receptor 1 antagonist S38151 decrease food intake and body weight in rodent obesity models” (Frontiers in Endocrinology, 2012)
